Source: ChEMBL document CHEMBL1201862, “PubChem BioAssay data set” (2004)
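Compound exposure: 48 hours, 5 concentrations, 96-well plates. GI50 marks 50% less growth.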 Active and inactive are the calls of the source. No stated cut-off is given here; in the data, active = GI50 up to about 1.1 µM and inactive = higher.

Columns and labels:
Assay in all cases: NCI anticancer screen, dose series, 48 h
COLO 205 = test system: COLO 205
EKVX = test system: EKVX
HCC 2998 = test system: HCC 2998
HCT-116 = test system: HCT-116
HCT-15 = test system: HCT-15
HOP-62 = test system: HOP-62
K562 = test system: K562
LOX IMVI = test system: LOX IMVI
MDA-MB-231 = test system: MDA-MB-231
MDA-N = test system: MDA-N
MOLT-4 = test system: MOLT-4
Malme-3M = test system: Malme-3M
NCI-H460 = test system: NCI-H460
OVCAR-3 = test system: OVCAR-3
OVCAR-5 = test system: OVCAR-5
PC-3 = test system: PC-3
SF-295 = test system: SF-295
SK-MEL-5 = test system: SK-MEL-5
SN12C = test system: SN12C
SW-620 = test system: SW-620

Structure (SMILES) | GI50 (COLO 205) | GI50 (EKVX) | GI50 (HCC 2998) | GI50 (HCT-116) | GI50 (HCT-15) [µM] | GI50 (HOP-62) | GI50 (K562) | GI50 (LOX IMVI) | GI50 (MDA-MB-231) | GI50 (MDA-N) | GI50 (MOLT-4) | GI50 (Malme-3M) | GI50 (NCI-H460) | GI50 (OVCAR-3) | GI50 (OVCAR-5) | GI50 (PC-3) | GI50 (SF-295) | GI50 (SK-MEL-5) | GI50 (SN12C) | GI50 (SW-620)
O=C(O)CCc1c2ccc(=O)c(O)c-2oc2c(O)c(O)ccc12 | > 100 µM (inactive) | 28.8 µM (inactive) | 8.55 µM (inactive) | 18.9 µM (inactive) | 79.4 | > 100 µM (inactive) | 24 µM (inactive) | 20.1 µM (inactive) | 20.6 µM (inactive) | 16.3 µM (inactive) | 23.3 µM (inactive) | 26.4 µM (inactive) | > 100 µM (inactive) | 91.8 µM (inactive) | > 100 µM (inactive) | > 100 µM (inactive) | 30.7 µM (inactive) | > 100 µM (inactive) | 15.9 µM (inactive) | 22.2 µM (inactive)
O=C(Nc1ccccc1)N(CCN(Cc1ccccc1)C(=O)Nc1ccccc1)CCN(Nc1ccccc1)C(=O)Nc1ccccc1 | > 100 µM (inactive) | > 100 µM (inactive) | > 100 µM (inactive) | > 100 µM (inactive) | > 100 | > 100 µM (inactive) | > 100 µM (inactive) | > 100 µM (inactive) | > 100 µM (inactive) | > 100 µM (inactive) | > 100 µM (inactive) | > 100 µM (inactive) | > 100 µM (inactive) | > 100 µM (inactive) | > 100 µM (inactive) | > 100 µM (inactive) | > 100 µM (inactive) | > 100 µM (inactive) | > 100 µM (inactive) | > 100 µM (inactive)
CN1C(=O)N/C(=C\c2ccc(S(=O)(=O)N/N=C\C(O)C(O)C(O)CO)cc2)C1=O (stereo not given) | > 100 µM (inactive) | > 100 µM (inactive) | > 100 µM (inactive) | > 100 µM (inactive) | > 100 | > 100 µM (inactive) | > 100 µM (inactive) | > 100 µM (inactive) | > 100 µM (inactive) | > 100 µM (inactive) | > 100 µM (inactive) | > 100 µM (inactive) | > 100 µM (inactive) | > 100 µM (inactive) | > 100 µM (inactive) | > 100 µM (inactive) | > 100 µM (inactive) | > 100 µM (inactive) | > 100 µM (inactive) | > 100 µM (inactive)
c1cc(-c2ccc(Oc3ccc(-c4ccncc4)cc3)cc2)ccn1 | 3.56 µM (inactive) | 5.53 µM (inactive) | 5 µM (inactive) | 4.24 µM (inactive) | 3.43 | 23.6 µM (inactive) | 2.5 µM (inactive) | 9.18 µM (inactive) | 18.3 µM (inactive) | 2.39 µM (inactive) | 2.99 µM (inactive) | 6.82 µM (inactive) | 3.93 µM (inactive) | 6.14 µM (inactive) | 29.2 µM (inactive) | 27 µM (inactive) | 5.96 µM (inactive) | 2.2 µM (inactive) | 23.3 µM (inactive) | 4.37 µM (inactive)
C=C(C(N)=O)c1ccc([N+](=O)[O-])o1 | 3.31 µM (inactive) | 18.1 µM (inactive) | 16.7 µM (inactive) | 3.97 µM (inactive) | 9.02 | 22.8 µM (inactive) | 3.61 µM (inactive) | 10.1 µM (inactive) | 13.8 µM (inactive) | 3 µM (inactive) | 3.84 µM (inactive) | 2.2 µM (inactive) | 19.9 µM (inactive) | 8.36 µM (inactive) | 18.7 µM (inactive) | 30.7 µM (inactive) | 42 µM (inactive) | 5.74 µM (inactive) | 10.3 µM (inactive) | 5.81 µM (inactive)
